Data from publication PMC11073699, “Odorant receptors for floral- and plant-derived volatiles in the yellow fever mosquito, Aedes aegypti (Diptera: Culicidae)” (PLOS ONE, 2024).
Where “and” joins values, the source holds several entries; their conditions need not be identical. Equal entries are not always repeated.

Tests used:
Assay type in all cases: cell-based
AaegOR13 = molecular target: T1, AaegOR13 (Aedes aegypti, UniProt Q16Z13); experiment: Two-electrode voltage clamp of Xenopus laevis oocytes expressing AaegOR13/Orco (blends, unitary compounds, concentration-response); settings: unitary compounds; for Normalized response, unitary compounds, Average: average of oocytes 1-7; for Raw data (Responses in nA), unitary compounds of Indoles 1, Alcohols 1, Alcohols 3 / Normalized response, unitary compounds of Indoles 1, Alcohols 1, Alcohols 3: individual oocytes 1-7; for Normalized response, unitary compounds of Indoles 1, Alcohols 1, Alcohols 3: normalized per oocyte
T1 sequence (Q16Z13 1-389): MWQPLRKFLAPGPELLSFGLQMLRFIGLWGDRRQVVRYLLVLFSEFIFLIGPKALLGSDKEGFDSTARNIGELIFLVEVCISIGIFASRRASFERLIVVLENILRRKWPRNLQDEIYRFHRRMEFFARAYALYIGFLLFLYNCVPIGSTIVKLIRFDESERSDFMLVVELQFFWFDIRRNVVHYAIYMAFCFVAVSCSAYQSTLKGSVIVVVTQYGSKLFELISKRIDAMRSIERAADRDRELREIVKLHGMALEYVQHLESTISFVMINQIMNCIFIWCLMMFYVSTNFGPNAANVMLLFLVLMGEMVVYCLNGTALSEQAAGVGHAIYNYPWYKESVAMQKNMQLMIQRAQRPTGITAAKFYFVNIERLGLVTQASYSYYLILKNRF
T1 sequence (Q178U6 1-478 partner): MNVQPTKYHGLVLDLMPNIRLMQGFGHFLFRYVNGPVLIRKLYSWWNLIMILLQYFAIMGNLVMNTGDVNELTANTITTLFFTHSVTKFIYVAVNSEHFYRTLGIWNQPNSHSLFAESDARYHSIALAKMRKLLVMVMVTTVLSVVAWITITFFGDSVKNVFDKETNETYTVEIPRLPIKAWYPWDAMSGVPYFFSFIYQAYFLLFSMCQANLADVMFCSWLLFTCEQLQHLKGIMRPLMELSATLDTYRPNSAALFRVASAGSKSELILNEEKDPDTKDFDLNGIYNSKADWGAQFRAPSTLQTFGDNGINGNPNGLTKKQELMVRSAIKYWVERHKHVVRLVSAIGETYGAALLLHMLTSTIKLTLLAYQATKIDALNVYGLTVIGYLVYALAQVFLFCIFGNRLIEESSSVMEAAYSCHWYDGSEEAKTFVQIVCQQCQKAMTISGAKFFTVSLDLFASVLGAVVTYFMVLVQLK
Description: (§1) The coding regions of ten AaegOR genes of interest (S3 File) and AaegOrco were synthesized by Twist Bioscience (San Francisco, CA, USA) and cloned into the pENTR plasmid. The Gateway LR directional cloning system (Invitrogen Corp., Carlsbad, CA, USA) was utilized to subclone AaegOR coding regions into the pSP64t-RFA oocyte expression plasmid. Plasmids were purified using the GeneJet Plasmid Miniprep Kit (ThermoFisher Scientific, Waltham, MA, USA). Purified plasmids were sequenced in both directions to confirm coding regions.
(§2) Chemical compounds (S6 File) used in the deorphanization of AaegORs were purchased from Acros Organics (Morris, NJ, USA), Alfa Aesar (Ward Hill, MA, USA), and ThermoFisher Scientific (Waltham, MA, USA) at the highest purity available. Compounds were stored as 1M stocks in 100% DMSO. Serial dilutions of each compound were prepared in 10% DMSO and blended by chemical class.
(§3) pSP64t-RFA: AaegOR clones were linearized using Xbal, and cRNAs were synthesized using the mMESSAGE mMACHINE ® SP6 kit (Life Technologies, Carlsbad, CA, USA). Xenopus laevis stage V-VII oocytes purchased from Xenopus1 (Dexter, MI, USA) were stored at 18°C in Incubation medium (ND96 96 with 5% dialyzed horse serum, 50μg/mL gentamycin, 100μg/mL streptomycin, 100μg/mL penicillin, and 550μg/mL sodium pyruvate). 30nL of cRNA was injected into multiple oocytes using a microinjection syringe pump (World Precision Instruments, Sarasota, FL, USA) maintained at 18°C for 48–72 hrs. Odorant blends were perfused across individual oocytes for 10–15 seconds, held at a resting membrane potential of -80 mV using an OC-725C oocyte clamp (Warner Instruments, LLC, Hamden, CT, USA). Induced currents were measured indirectly using the two-electrode voltage clamp technique (TEVC). Following each stimulus, currents were allowed to return to baseline before further stimulation. Data was captured using the Digidata 1550 B digitizer and PClamp10 software (Molecular Devices, San Jose, CA, USA). Concentration-response curves were generated by perfusing unitary odorants over oocytes at increasing concentrations from [10^-3M] to [10^-9M]. Data were analyzed using GraphPad Prism 8 (GraphPad Software Inc., La Jolla, CA, USA). At least two biological replicates were conducted at each concentration and for each compound. Data for at least seven oocytes responding to each compound was analyzed (S7 File).

AaegOR31 = molecular target: T2, AaegOR31 (Aedes aegypti, UniProt Q16JU0); experiment: Two-electrode voltage clamp of Xenopus laevis oocytes expressing AaegOR31/Orco (blends, unitary compounds, concentration-response); settings: for Normalized response, Average, Alcohols 1 unitary compounds / Raw Data (Responses in nA), Alcohols 1 unitary compounds / Normalized response, Alcohols 1 unitary compounds / Raw Data (Responses in nA), concentration-response: AaegOR31; for Normalized response, Average, Alcohols 1 unitary compounds / Raw Data (Responses in nA), Alcohols 1 unitary compounds / Normalized response, Alcohols 1 unitary compounds: compounds of blend Alcohols 1; for Normalized response, Average, Alcohols 1 unitary compounds: average of 8 oocytes; for Raw Data (Responses in nA), Alcohols 1 unitary compounds / Normalized response, Alcohols 1 unitary compounds: individual oocytes (Oocyte 1-8); for Normalized response, Alcohols 1 unitary compounds: normalized to the strongest compound per oocyte; for Raw Data (Responses in nA), concentration-response: individual oocytes (Oocyte 1-10)
T2 sequence (Q16JU0 1-381): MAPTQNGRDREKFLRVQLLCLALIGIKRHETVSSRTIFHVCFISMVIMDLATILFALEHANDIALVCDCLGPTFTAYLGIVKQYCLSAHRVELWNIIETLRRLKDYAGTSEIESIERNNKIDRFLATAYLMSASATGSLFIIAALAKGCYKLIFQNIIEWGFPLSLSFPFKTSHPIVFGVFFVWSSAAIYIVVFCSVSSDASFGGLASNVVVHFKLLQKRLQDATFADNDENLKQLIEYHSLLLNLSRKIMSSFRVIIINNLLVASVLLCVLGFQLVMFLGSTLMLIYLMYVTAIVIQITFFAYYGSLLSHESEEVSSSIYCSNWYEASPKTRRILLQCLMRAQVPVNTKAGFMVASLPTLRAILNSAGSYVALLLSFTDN
T2 sequence (Q178U6 1-478 partner): T1 sequence (Q178U6 1-478 partner)
Description: as §1, §2, §3

AaegOR28 = molecular target: T3, AaegOR28 (Aedes aegypti, UniProt Q0IGE1); experiment: Two-electrode voltage clamp of Xenopus laevis oocytes expressing AaegOR28/Orco (blends, unitary compounds, concentration-response); settings: AaegOR28, compounds of blend Alcohols 3; for Raw Data (Responses in nA), Alcohols 3 unitary compounds: individual oocytes 1-10
T3 sequence (Q0IGE1 1-394): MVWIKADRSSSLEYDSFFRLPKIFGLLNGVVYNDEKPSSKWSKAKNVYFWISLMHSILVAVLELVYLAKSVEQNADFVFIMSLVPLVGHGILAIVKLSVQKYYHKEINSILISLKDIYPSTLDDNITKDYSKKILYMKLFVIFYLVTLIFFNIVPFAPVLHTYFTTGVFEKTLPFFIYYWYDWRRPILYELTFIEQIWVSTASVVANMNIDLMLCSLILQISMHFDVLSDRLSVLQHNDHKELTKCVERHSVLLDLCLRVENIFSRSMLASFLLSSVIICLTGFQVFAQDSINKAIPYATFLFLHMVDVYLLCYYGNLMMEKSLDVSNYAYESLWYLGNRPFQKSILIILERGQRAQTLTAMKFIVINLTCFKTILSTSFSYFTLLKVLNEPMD
T3 sequence (Q178U6 1-478 partner): T1 sequence (Q178U6 1-478 partner)
Description: as §1, §2, §3

Compound	Normalized response, unitary compounds, Average (AaegOR13)	Raw data (Responses in nA), unitary compounds of Indoles 1, Alcohols 1, Alcohols 3 (AaegOR13)	Normalized response, unitary compounds of Indoles 1, Alcohols 1, Alcohols 3 (AaegOR13)	Normalized response, Average, Alcohols 1 unitary compounds (AaegOR31)	Raw Data (Responses in nA), Alcohols 1 unitary compounds (AaegOR31)	Normalized response, Alcohols 1 unitary compounds (AaegOR31)	also measured
CC(C)O [2-propanol]	0.0	0.0 nA	0.0	10.7	10.0 nA and 20.0 nA and 15.0 nA and 0.0 nA (5×)	5.9 and 50.0 and 30.0 and 0.0 (5×)	
CC(C)=CCC/C(C)=C/CC/C(C)=C/CO [farnesol]		0.0 nA			170.0 nA and 40.0 nA and 50.0 nA and 120.0 nA and 340.0 nA and 75.0 nA and 80.0 nA and 270.0 nA		EC50 (AaegOR31; AaegOR31/Orco expressing oocytes, TEVC, concentration-response of normalized current): 14.3 µM; Raw Data (Responses in nA), concentration-response (AaegOR31; concentration 1e-7 M): 0.0 nA (4×) and 20.0 nA and 30.0 nA (2×) and 10.0 nA (2×) and 5.0 nA; Raw Data (Responses in nA), concentration-response (AaegOR31; concentration 5e-7 M): 5.0 nA (3×) and 10.0 nA (4×) and 20.0 nA and 0.0 nA and 15.0 nA; Raw Data (Responses in nA), concentration-response (AaegOR31; concentration 1e-6 M): 20.0 nA (6×) and 0.0 nA (2×) and 10.0 nA (2×); Raw Data (Responses in nA), concentration-response (AaegOR31; concentration 5e-6 M): 90.0 nA (2×) and 80.0 nA and 30.0 nA and 50.0 nA (2×) and 20.0 nA (2×) and 40.0 nA and 100.0 nA; Raw Data (Responses in nA), concentration-response (AaegOR31; concentration 1e-5 M): 130.0 nA (2×) and 120.0 nA (2×) and 55.0 nA and 90.0 nA and 160.0 nA and 45.0 nA and 50.0 nA and 170.0 nA; Raw Data (Responses in nA), concentration-response (AaegOR31; concentration 5e-5 M): 190.0 nA and 320.0 nA and 270.0 nA and 130.0 nA and 260.0 nA and 430.0 nA and 150.0 nA and 100.0 nA and 290.0 nA and 360.0 nA; Raw Data (Responses in nA), concentration-response (AaegOR31; concentration 0.0001 M): 160.0 nA and 440.0 nA and 280.0 nA and 210.0 nA and 270.0 nA and 400.0 nA and 170.0 nA and 80.0 nA and 320.0 nA and 430.0 nA
CC1CCC(C(C)C)C(O)C1 (racemic) [DL-menthol]		0.0 nA (4×) and 30.0 nA and 10.0 nA and 5.0 nA			5.0 nA (2×) and 0.0 nA (6×)		
CC(C)=CCC/C(C)=C/CO [Geraniol]							Raw Data (Responses in nA), Alcohols 3 unitary compounds (AaegOR28): 0 nA
CC(C)(C)c1ccc(O)cc1 [4-tert butylphenol]					0.0 nA (7×) and 10.0 nA		
OCC(O)CO [glycerol]		0.0 nA			5.0 nA (2×) and 0.0 nA (6×)		
C=C[C@@](C)(O)CCC=C(C)C [(S)-(+)-linalool]							Normalized response, Average, Alcohols 3 unitary compounds (AaegOR28; average of 10 oocytes): 19.1; Raw Data (Responses in nA), Alcohols 3 unitary compounds (AaegOR28): 10 nA (2×) and 5 nA (5×) and 0 nA and 15 nA (2×); Normalized response, Alcohols 3 unitary compounds (AaegOR28; individual oocytes 1-10, normalized to largest response of each oocyte): 33.3 and 14.3 and 25.0 and 0.0 and 30.0 and 16.7 (2×) and 12.5 and 22.2 and 20
Cc1ccc(O)cc1 [p-cresol]		20.0 nA and 290.0 nA and 85.0 nA and 140.0 nA and 165.0 nA and 135.0 nA and 90.0 nA			0.0 nA		
CO [methanol]	0.0	0.0 nA	0.0	0.0	0.0 nA	0.0	
Cc1cccc(O)c1 [m-cresol]		0.0 nA and 75.0 nA and 25.0 nA (2×) and 40.0 nA (2×) and 45.0 nA			15.0 nA and 0.0 nA (7×)		
Cc1ccccc1O [o-cresol]		0.0 nA and 110.0 nA and 25.0 nA and 35.0 nA and 50.0 nA and 45.0 nA and 15.0 nA			0.0 nA		
CCO [ethanol]	0.0	0.0 nA	0.0	0.0	0.0 nA	0.0	
CCCCO [n-butanol]	0.0	0.0 nA	0.0	0.0	0.0 nA	0.0	
